Key:
Format in all cases: cell-based
[1] = system: human hepatic stellate cells LX-2; assay: Anti-fibrosis activity test: inhibition of proliferation of human hepatic stellate cells LX-2 (CCK-8); conditions: Homo sapiens, 48 h
Outline: (§1)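 Cells seeded at 2×10^4 cells/mL, adhered 24 h, then exposed to compound concentrations in triplicate for 48 h at 37° C, 5% CO2. CCK-8 added for 2 h, absorbance at 450 nm; inhibition = (1−Ai/Ao)×100% versus blank control, IC50 calculated.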

[2] = system: cardiac fibroblast RAT-iCell-C002; assay: Anti-fibrosis activity test: inhibition of proliferation of cardiac fibroblast RAT-iCell-C002 (CCK-8); conditions: Cardiac fibroblast, 48 h
Outline: as §1

[3] = system: human lung fibroblasts HFL1; assay: Anti-fibrosis activity test: inhibition of proliferation of human lung fibroblasts HFL1 (CCK-8); conditions: Homo sapiens, HFL1, 48 h
Outline: as §1

[4] = system: human fibrosarcoma cells HT-1080; assay: Anti-fibrosis activity test: inhibition of proliferation of human fibrosarcoma cells HT-1080 (CCK-8); conditions: Homo sapiens, HT-1080, 48 h
Outline: as §1

[5] = system: human embryonic lung fibroblast IMR-90; assay: Anti-fibrosis activity test: inhibition of proliferation of human embryonic lung fibroblast IMR-90 (CCK-8)
Outline: as §1

[6] = system: mouse macrophages (RAW264.7); assay: Lipopolysaccharide-induced NO secretion in macrophages (Griess); conditions: Mus musculus, RAW264.7, 24 h, RAW264.7, LPS 1 μg/ml, a/b isomers given as first/second symbol, read-out: IC50 (μM), inhibition of lipopolysaccharide-induced NO secretion in macrophages
Outline: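 RAW264.7 macrophages in DMEM with 10% FBS received test samples at several concentrations and were stimulated with 1 μg/ml LPS for 24 h. NO in the supernatant was measured with the Griess reagent at 548 nm, […].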

[7] = system: human dermal fibroblasts CCC-ESF-1; assay: Anti-fibrosis activity test: inhibition of proliferation of human dermal fibroblasts CCC-ESF-1 (CCK-8); conditions: Fibroblast
Outline: as §1

NF-κB = assay: Immunological activity test: inhibition of NF-κB activity; conditions: initial concentration of 30 μM; a/b isomers given as first/second symbol; read-out: IC50 (μM), inhibitory activity against NF-κB
Outline: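 NF-κB inhibition was tested at an initial 30 μM compound concentration, with parthenolide as positive control, and IC50 values were determined from follow-up analysis.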

BHK-21 cells = assay: Anti-fibrosis activity test: inhibition of BHK-21 cell proliferation (CCK-8); conditions: Mesocricetus auratus, BHK-21, 48 h
Outline: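 Proliferation of BHK-21 cells is measured by CCK-8 at 450 nm following 48 h compound exposure at several concentrations. Inhibition is expressed relative to blank control and IC50 is computed from it.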

[8] = human hepatic stellate cells LX-2, CCK-8, 48 hours
[9] = cardiac fibroblast RAT-iCell-C002, CCK-8, 48 hours
[10] = human lung fibroblasts HFL1, CCK-8, 48 hours
[11] = human fibrosarcoma cells HT-1080, CCK-8, 48 hours
[12] = human embryonic lung fibroblast IMR-90, CCK-8, 48 hours
[13] = human dermal fibroblasts CCC-ESF-1, CCK-8, 48 hours
[14] = CCK-8, 48 hours after administration

| IC50 [4, 11] | IC50 [6] | IC50 (NF-κB) | IC50 ([4]; HT-1080 cells, 48 h, CCK-8) | Structure (SMILES) | IC50 [1, 8] | IC50 [2, 9] | IC50 [3, 10] | IC50 [5, 12] | IC50 [7, 13] | IC50 (BHK-21 cells; [14]) | IC50 ([1]; LX-2, 48 h, LX-2 cells, CCK-8) | IC50 ([2]; RAT-iCell-C002 cells, CCK-8) | IC50 ([3]; HFL1 cells, 48 h, CCK-8) | IC50 ([5]; Homo sapiens, IMR-90 cells, 48 h, CCK-8) | IC50 ([7]; Homo sapiens, CCC-ESF-1 cells, 48 h, CCK-8) | IC50 (BHK-21 cells; 48 h, CCK-8) |
| --- | --- | --- | --- | --- | --- | --- | --- | --- | --- | --- | --- | --- | --- | --- | --- | --- |
| 0.05 to 5 mM | 1 to 10 µM | 1 to 10 µM |  | O=C1c2c(n(Cc3cccc(Cl)c3)c3ccccc3c2=O)-c2cccn21 [Compound 596a, 4-(3-Chlorobenzyl)-9H-pyrrolizino[1,2-b]quinoline-9,10(4H)-dione] | 0.05 to 5 mM | 0.05 to 5 mM | 0.05 to 5 mM | 0.05 to 5 mM | 0.05 to 5 mM | 0.05 to 5 mM |  |  |  |  |  |  |
| 0.05 to 5 mM | 1 to 10 µM | 1 to 10 µM |  | O=C1c2c(nc3ccccc3c2OCc2ccc(Cl)cc2F)-c2cccn21 [Compound 602b, 9-((4-chloro-2-fluorobenzyl)oxy)-10H-pyrrolizino[1,2-b]quinolin-10-one] | 0.05 to 5 mM | 0.05 to 5 mM | 0.05 to 5 mM | 0.05 to 5 mM | 0.05 to 5 mM | 0.05 to 5 mM |  |  |  |  |  |  |
| 0.05 to 5 mM | 1 to 10 µM | 1 to 10 µM |  | COc1cccc(COc2c3c(nc4ccccc24)-c2cccn2C3=O)c1 [Compound 610b, 9-((3-methoxybenzyl)oxy)-10H-pyrrolizino[1,2-b]quinolin-10-one] | 0.05 to 5 mM | 0.05 to 5 mM | 0.05 to 5 mM | 0.05 to 5 mM | 0.05 to 5 mM | 0.05 to 5 mM |  |  |  |  |  |  |
| 0.05 to 5 mM | 0.1 to 1 µM | 1 to 10 µM |  | O=C(O)Cn1c2c(c(=O)c3ccccc31)C(=O)n1cccc1-2 [Compound 100a, 2-(9,10-Dioxo-9H-pyrrolizino[1,2-b]quinolin-4(10H)-yl)acetic acid] | 0.05 to 5 mM | 0.05 to 5 mM | < 0.05 mM | 0.05 to 5 mM | 0.05 to 5 mM | 0.05 to 5 mM |  |  |  |  |  |  |
| 0.05 to 5 mM | 1 to 10 µM | 1 to 10 µM |  | O=C1c2c(n(CCc3ccccc3)c3ccc(F)cc3c2=O)-c2cccn21 [Compound 141a, 7-Fluoro-4-phenethyl-9H-pyrrolizino[1,2-b]quinoline-9,10(4H)-dione] | 0.05 to 5 mM | 0.05 to 5 mM | 0.05 to 5 mM | 0.05 to 5 mM | < 0.05 mM | 0.05 to 5 mM |  |  |  |  |  |  |
| 0.05 to 5 mM | 1 to 10 µM | 1 to 10 µM |  | COc1cccc(Cn2c3c(c(=O)c4ccccc42)C(=O)n2cccc2-3)c1 [Compound 610a, 4-(3-Methoxybenzyl)-9H-pyrrolizino[1,2-b]quinoline-9,10(4H)-dione] | 0.05 to 5 mM | 0.05 to 5 mM | 0.05 to 5 mM | 0.05 to 5 mM | 0.05 to 5 mM | 0.05 to 5 mM |  |  |  |  |  |  |
| 0.05 to 5 mM | 1 to 10 µM | 0.1 to 1 µM |  | O=C1c2c(n(Cc3ccccc3F)c3ccccc3c2=O)-c2cccn21 [Compound 599a, 4-(2-Fluorobenzyl)-9H-pyrrolizino[1,2-b]quinoline-9,10(4H)-dione] | 0.05 to 5 mM | 0.05 to 5 mM | 0.05 to 5 mM | 0.05 to 5 mM | 0.05 to 5 mM | 0.05 to 5 mM |  |  |  |  |  |  |
|  | 1 to 10 µM | 0.1 to 1 µM | 0.05 to 5 mM | O=C1c2c(n(CCN3CCCCC3)c3ccccc3c2=O)-c2cccn21 [Compound 665a, 4-(2-(Piperidin-1-yl)ethyl)-9H-pyrrolizino[1,2-b]quinoline-9,10(4H)-dione] |  |  |  |  |  |  | < 0.05 mM | 0.05 to 5 mM | 0.05 to 5 mM | 0.05 to 5 mM | 0.05 to 5 mM | 0.05 to 5 mM |
| 0.05 to 5 mM | 1 to 10 µM | 1 to 10 µM |  | N#Cc1ccc(Cn2c3c(c(=O)c4ccccc42)C(=O)n2cccc2-3)cc1 [Compound 590a, 4-((9,10-Dioxo-9H-pyrrolizino[1,2-b]quinolin-4(10H)-yl)methyl)benzonitrile] | 0.05 to 5 mM | 0.05 to 5 mM | 0.05 to 5 mM | 0.05 to 5 mM | 0.05 to 5 mM | 0.05 to 5 mM |  |  |  |  |  |  |

From patent US11040028B2, “Penicinotam derivative, preparation method and use thereof” (OCEAN UNIVERSITY OF CHINA, priority 2017, dated 2021)
